3 molecules from US7279497B2, “Benzopyran derivatives substituted with secondary amines including imidazole, their preparation and pharmaceutical compositions containing them” (Korea Research Institute of Chemical Technology, priority 2002, dated 2007) can be followed below.

The test system of one data set is ischemic hearts. Nature of the data set: Cardioprotective activity in ischemic heart model of anesthetized rats. Conditions: Rat in vivo, 0.3 mg/kg i.v. As for the experimental part: In order to determine whether the compounds of formula 1 are protective for ischemic hearts, experiments determining the anti-ischemic effects of the compounds on rats were conducted as follows. Male rats (350-450 g, obtained from the Experimental Animal Team of the Korea Research Institute of Chemical Technology) were anesthetized by the intraperitoneal injection of pentobarbital at a dose of 75 mg/kg. After trachetomy, the rats were rendered to respire artificially at a rate of 60/min with a stroke volume of 10 ml/kg. Cannulars were inserted into the fermoral vein and the fermoral artery and used for drug administration and blood pressure measurement, respectively. In the ischemic myocardial injury models, the body temperature has an important influence on the results. To avoid the change in the body temperature, a body temperature measuring probe was inserted into the rectum of each rat and the body temperature was constantly kept at 37° C. with the aid of a homeothermic blanket control unit. Afterwards, during testing, a continuous measurement was made of the mean arterial blood pressures and heart rates from the rats. For the measurement of the blood pressure, a pressure transducer (Statham P23XL, Grass Ins., MA, U.S.A.) was used. The heart rate was measured by a tachometer (ECG/RATE Coupler, Hugo Sachs Electronic, German) identified as Biotachometer. In addition, all of the changes occurring were continuously recorded through the Gould 2000 chart recorder ([…] Linearcorder W R 3310, Hugo Sachs Electronic). The left coronary artery was occluded according to the Selye H. method as follows. The rats underwent a left thoracotomy operation for partial opening of the chest and the right-side chest was pressurized by the middle finger of the left hand to push the heart out. Immediately after the left anterior descending coronary artery hereinafter referred to as (LAD) was carefully stitched using a suture needle with 5-0 silk ligature, the heart was then repositioned in the thoracic cavity while both ends of the ligature were situated outside. The opposite ligature ends were passed through a PE tube (PE100, 2.5 cm) and allowed to stand loose for 20 min for stabilization. Via the cannula inserted into the femoral vein, vehicles or drugs were administered into the rats which were rendered to stand for 30 min in order to sufficiently elicit the efficacies of the drugs. […] From the images input into the computer, the area of the normal blood stream tissue region which appeared blue in a computer monitor and the area which appeared colorless were measured. The percentage of the colorless area to the total area of each slice was calculated and multiplied by the weight of each slice to determine the area at risk (AAR) of each slice. […]

The test system of the next data set is isolated rat hearts. In words: Cardioprotective activity in isolated ischemic rat heart (Langendorff). Particulars: 10 μM. Here is the method: In order to determine whether the compounds of the chemical formula 1 are protective for ischemic hearts in vitro, experiments determining the anti-ischemic effects of the compounds on isolated rat hearts were conducted as follows.
For all in vitro studies, isolated rat hearts were used according to the published methods after some modification [HJ Ring, Arzneim.-Forsch./Drug Res. 39 (II), 1535 (1989): T. Krzeminski, et al., J. Pharmacological Methods, 25, 95, (1991)]
Male Sprague-Dawley rats weighing 300-450 g were anesthetized with sodium pentobarbital (100 mg/kg, i.p.). The tail vein was injected with heparin (1,000 U/kg) and then the trachea was intubated. While rats were mechanically ventilated with a rodent ventilator (Model 7025, Ugobasile, Italy), their hearts were perfused in situ with oxygenated modified Krebs-Henseleit bicarbonate buffer (described herein) by retrograde aortic cannulation. The hearts were then excised and moved to a Langendorff apparatus (H.S.E., Germany), where they were perfused with oxygenated modified Krebs-Henseleit bicarbonate buffer containing (in mM) NaCl 116, NaHCO3 24.9, KCl 4.7, MgSO4 1.1, KH2PO4 1.17, CaCl2 2.52, glucose 8.32 and pyruvate 2.0 at a constant perfusion pressure (85 mm Hg). A latex balloon filled with solvent (ethanol:water=1:1 (v/v)) and attached to a metal cannula was placed in the left ventricle through pulmonary vein and connected to a Isotec pressure transducer (H.S.E., Germany) for measurement of left ventricular pressure (LVP). The hearts were allowed to equilibrate for 15 min, at which time left ventricular end-diastolic pressure (EDP) was adjusted to 5 mm Hg and this balloon volume was maintained throughout the experiment. Then, baseline contractile function, heart rate (HR), and coronary flow (CF) (extracorporeal electromagnetic flow probe, Narco Bio-System, U.S.A.) were measured. Cardiac contractile function was calculated by subtracting LVEDP from LV peak systolic pressure (LVSP), yielding developed pressure (LVDP). Double product (DP), another important parameter for assessing cardiac performance, was calculated by multiplying HR by LVDP. Throughout the experiment, all these parameters were measured, and calculated before and 10 min after pretreatment with each compound and 30 min after the onset of reperfusion with buffer. Data on reperfusion DP were further expressed as the percentage to pretreatment DP.
After stabilization for 15 min, the hearts were pretreated for 10 min with respective drugs (10 μM, 0.04% DMSO) or vehicle (0.04% DMSO) before onset of global ischemia; test agents were administered directly into the oxygenator of the Langendorff apparatus immediately above the aortic root in a retrograde fashion as solutions in the perfusate. We then rendered the hearts globally ischemic by completely shutting off the perfusate for 30 min. Severity of ischemia was determined as the time to contracture (TTC, min) during global ischemia in which the first 5 mmHg increase in EDP was observed. Then, the hearts were reperfused and, 30 min later, contractile function (LVDP, DP) and cumulative reperfusion lactate dehydrogenase (LDH) release were measured. LDH was measured as a sensitive index for loss of cell viability with a kit supplied by Boerhinger Mannheim based on the technique of Wroblewski and LaDue [F. Wroblewski and J S. La Due, Proc Soc Exp Biol Med 90, 210, (1955)].

In a further data set the test system is isolated rat aorta. In words: Vasorelaxation effects on isolated blood vessels (methoxamine induced vasoconstriction). Conditions: rat aorta constricted with methoxamine (3 μM). As for the experimental part:
The following experiment was conducted to examine whether the compounds of the formula 1 have vasorelaxation effects.
Male Sprague-Dawly rats (350-450 g, obtained from the Experimental Animal Team of the Korea Research Institute of Chemical Technology) were knocked unconscious by hitting the occipital region, sacrificed by cervical dislocation, and underwent thoracotomy. After being quickly removed, the thoracic aorta was deprived of the adipose tissue and cut into aortic rings of 3 mm width. The aorta was lightly rubbed with a modified Krebs Henseleit buffer (Physiological Salt Solution, PSS) soaked cotton club to remove the inner epithelial layer therefrom. While being suspended in an organ bath containing a physiological buffer, the vascular tissue was allowed to equilibrate under a resting tension of 2 g and then, stand for 1 hour at 37° C. for stabilization with a supply of a carbogen consisting of 95% O2-5% CO2.
Thereafter, the vascular tissue was constricted with 10^−5 M phenylephrine and washed several times with PSS and this procedure was repeated again to ensure the stable reactivity of vascular smooth muscle to repetitive constriction/dilatation.
In addition, 3×10^−6 M methoxamine was used to induce an intensive constriction in the vascular smooth muscle. When the vasoconstriction induced by the methoxamine reached and maintained a maximum, test compounds and controls were cumulatively added to the organ baths in concentrations of 1, 3, 10 and 30 μM so as to induce vasodilatation. Cromakalim, BMS-180448, and BMS-191095 were used as the controls.
Following the addition of test compounds, the change in the maximal constriction induced by methoxamine was calculated to plot a concentration-relaxation response curve. Through a linear regression analysis, IC50, the drug concentration at which the vascular tissue is 50% dilated, was obtained for each compound.

A further data set relates to SPF SD rats. Conditions: rat, in vivo, po.
The subject of data set [1] is cerebral cortical neurons. In words: Protective activity against iron-induced neuronal damage (LDH release). Format: cell-based. Particulars: Rattus norvegicus, Cortical neurone, FeSO4 50 μM, 24 hours. Here is the method:
In order to examine whether the compounds of the formula 1 suppress the iron-induced neuronal damage and death, experiments were conducted as follows.
From the brains of 17-18 day-old rat embryos, cerebral cortical neurons were isolated and then, cultured at 37° C. for 7-9 days in a 5% CO2 incubator. The cortical cell cultures were washed twice with a minimum essential medium (MEM) to reduce the serum concentration to 0.2% and pre-treated with test compounds at 30, 7.5, 1.875, and 0.469 μM of final concentrations, each for 30 min. The test compounds were dissolved in DMSO and diluted in a medium. At this time, the final concentration of DMSO was not allowed to exceed 0.2%. For a control group, only vehicle was applied.
After the pre-treatment with test compounds or vehicle, FeSO4 was added to a final concentration of 50 μM, and the cultures were maintained for 24 hours in a CO2 incubator. During incubation, lactate dehydrogenase (LDH) was released into the medium upon neuronal death by the oxidative toxicity of iron. The extent of neuronal damage was assessed by measuring the amount of LDH released into the media. The protective effect of the compounds of interest on neurons was evaluated by calculating the reduction rate of released LDH of treated group compared with that of the control group, and IC50 was calculated as the least linear regression analysis of dose-response curve.
(In general: LDH leaks from cells whose membrane has failed.)

The test system of data set [2] is HUVECs (Human umbilical vein endothelial cells). Nature of the data set: Inhibitory effects on HUVEC tube formation.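 As to tube formation: from minus no inhibition up to plus-plus-plus complete inhibition versus vehicle.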 The class given is cell-based. As for the experimental part:
The Inhibitory effects of the compounds of the formula 1 on angiogenesis were meassured by the vascular tube formation assay of HUVECs (Human umbilical vein endothelial cells), which is one of the major angiogenic steps.
HUVECs were isolated from human umbilical vein, and cultured. HUVECs within passage 5 from confluent cultures were detached, and plated onto a layer of a bFGF (basic fibroblast growth factor)-reduced and polymerized Matrigel. Matrigel cultures were incubated with or without the compounds of formula 1, and the changes of cell morphology were captured through a phase contrast microscope and photographed.

In the next data set the test system is rat brain homogenate. In words: Inhibitory activity against iron-induced lipid peroxidation (MDA). Format: biochemical. Conditions: 30 μM, FeCl2 400 μm. As for the experimental part:
In order to examine whether the compounds of the formula 1 suppress the iron-induced lipid peroxidation, experiments were conducted as follows.
The rat brain was homogenized in a Krebs buffer (15 mM HEPES, 10 mM glucose, 140 mM NaCl, 3.6 mM KCl, 1.5 mM CaCl2, 1.4 mM KH2PO4, 0.7 mM MgCl2, pH 7.4) and the supernatant separated by centrifugation at 12,000 rpm for 10 min was used for further experiments. FeCl2 was added to a final concentration of 400 μm in the brain homogenate which was then allowed to stand at 37° C. for 30 min. for the facilitation of oxidation. Each of the test compounds was added at a concentration of 30 μM and vehicle was used as a control.
Iron facilitates the oxidation of the brain homogenate to produce malondialdehyde (MDA), a lipid peroxidation product. Thus, the lipid peroxidation was determined by MDA quantification. The inhibitory effect of the test compounds against the lipid peroxidation was evaluated by calculating MDA reduction rate of the test compounds compared with that of the control group.
Typically, the MDA quantification is achieved by reacting samples with 2-thiobarbituric acid (TBA) and measuring the absorbance at 530 nm. However, this method is unsuitable to treat samples on a large scale because of a boiling step. Thus, in this experiment, N-methyl-2-phenylindole was used instead of TBA. […] Bioxytech^R LPO-586 Kit was used for MDA quantification.

The IC50 is the midpoint of a concentration-inhibition curve. What is called inhibition is the percentage by which the read-out fell short of the control.

Structures are written as SMILES.

For the molecule `CC1(C)Oc2ccc(C#N)cc2[C@@H](N=C(NC#N)Nc2ccc(Cl)cc2)[C@@H]1O` [BMS-180448, reference compound], in the data set on ischemic hearts, the “AAR/LV (%)” value turned out to be 38.8% and the “IZ/AAR (%)” value worked out at 39.1%. Moreover, in the data set on isolated rat hearts (30 min reperfusion, % of pretreatment DP), the “LDVP × HR (%)” value stood at 67.6%. Moreover, the “TTC (time to contracture)” value with isolated rat hearts (global ischemia) is reported as 27.8 min. Also, in the data set with isolated rat hearts (reperfusion), the EDP worked out at 16.5 MmHg and the “LDH (reperfusion release)” value was 17.2 U/g. The molecule also came in with a concentration for half-maximal inhibition (IC50) with isolated rat aorta of 1.38 µM.
For `COC(OC)[C@@]1(C)Oc2ccc([N+](=O)[O-])cc2[C@H](N(Cc2ncc[nH]2)c2ccc(Cl)cc2)[C@H]1O` [Example 2, (2S,3R,4S)-3,4-dihydro-2-dimethoxymethyl-3-hydroxy-2-methyl-6-nitro-4-[N-(4-chlorophenyl)-N-(1H-imidazol-2-ylmethyl)amino]-2H-1-benzopyran], the “clinical symptoms, body weight and mortality” value with SPF SD rats is recorded as “no significant changes”. Besides, in data set [1] (30 μM, read-out: Neuroprotection inhibition % (LDH release)), the inhibition at 30 µM came to 92%. For the same molecule, the 50% inhibitory concentration (IC50) in data set [1] (read-out: Neuroprotection IC50) amounted to 6.2 µM. The “inhibitory effect on HUVEC tube formation” value in data set [2] (10 uM) is recorded as “strong inhibition”; in data set [2] (100 uM), “complete inhibition”. Besides, the Tube formation entry in data set [2] (10 μM) is listed as “++”; in data set [2] (100 μM) it was “+++”.
For `COC(OC)[C@@]1(C)Oc2ccc(N)cc2[C@@H](N(Cc2ncc[nH]2)c2ccc(Cl)cc2)[C@@H]1O` [Example 24, (2S,3S,4R)-6-amino-3,4-dihydro-2-dimethoxymethyl-3-hydroxy-2-methyl-4-[N-(4-chlorophenyl)-N-(1H-imidazol-2-ylmethyl)amino]-2H-1-benzopyran], the “clinical symptoms, body weight and mortality” value in the data set with SPF SD rats was “no significant changes”. Also, the “% Inhibition of lipid peroxidation by iron” value in the data set on rat brain homogenate was 83%. The Tube formation result in data set [2] (10 μM) and in data set [2] (100 μM) was “+” throughout.
